Consider 3 compounds from US20200190062A1, “HETEROCYCLIC COMPOUND AND PHARMACEUTICAL COMPOSITION COMPRISING SAME” (BEYONDBIO INC., priority 2015, published 2020).

For data set [1], the system named is HCT116. In words: Inhibition of cancer cell proliferation (MTT). It counts as cell-based, human.
For data set [2], the system named is SH-SY5Y. Put plainly: Inhibition of cancer cell proliferation (MTT). It counts as cell-based, human. Conditions: Homo sapiens, SH-SY5Y, 72 h. An outline of the steps:
(§1)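 GI50 values come from MTT readings (535 nm) taken after 72 h of compound treatment over 0.004–10 uM, normalised to vehicle-treated wells. Cell lines are grown in 10% FBS, with DMEM for A549, SK-N-SH and SH-SY5Y and […] for NCI-H23.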

Data set [3] relates to U-87MG. Put plainly: Inhibition of cancer cell proliferation (MTT). In kind it is cell-based, human. An outline of the steps: (§2)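 Plate 3000 cells/well and let them adhere for 16 h. Add compound (0.004, 0.013, 0.04, 0.12, 0.37, 1.1, 3.3, 10 uM; 0.08% DMSO) and culture for 72 h. Add MTT for 2 h, dissolve formazan in DMSO, read at 535 nm, and fit GI50.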
Data set [4] concerns SK-N-SH. In words: Inhibition of cancer cell proliferation (MTT). It counts as cell-based, human. The conditions noted are these: Homo sapiens, SK-N-SH, 72 h. The method in brief: as §1
Data set [5] deals with T98G. In words: Inhibition of cancer cell proliferation (MTT). It counts as cell-based, human. An outline of the steps:
as §2

The nature of data set [6]: Blood brain barrier permeation. It counts as in vivo, ICR mice. The conditions noted are these: mouse, 10 mg/kg, oral once 10 mg/kg. The protocol:
Using 9-week-old male ICR mice, the compounds obtained in the above Examples were orally administered once at a dose of 10 mg/kg or 30 mg/kg, and after 1 hr and 4 hrs, the concentrations of the compounds in the blood and brain of the mice were determined. 3 ICR mice were assigned in each group. Plasma was separated from the blood obtained after sacrificing the mice at each time, the brain of the mice was extracted, and the […] was washed with PBS, followed by pulverizing the brain tissue. The blood was placed in a test tube containing heparin to prevent coagulation and then was centrifuged at 12,000 rpm at 4° C. for 3 min to give a supernatant from which plasma was collected. Brain tissue was weighed, and the brain was pulverized using Dounce's homogenizer after adding 3 times as much volume of PBS as the brain weight. Each of the obtained analytical samples was quantitatively analyzed using a tandem liquid chromatography-mass spectrometer (Tandem LC/MS/MS, API3000 & Agilent 1100 series). Brain permeability of a compound is expressed as a value obtained by dividing the concentration of the compound in the brain by the concentration of the compound in the plasma (B/P ratio), and when the B/P ratio is greater than 1, it means that the concentration in the brain is higher than the one in the blood.

Data set [7] has as its target T1, CDK2/cyclinE (Homo sapiens, UniProt P24941).
T1 construct: purchased Merck Millipore
Put plainly: Inhibition of CDK enzyme activity (ADP-Glo kinase assay). It counts as biochemical. The conditions noted are these: 10 uM ATP, histone H1 substrate. The protocol: (§3) Test compounds were prepared by dissolving the compounds obtained in the above Examples in dimethylsulfoxide (DMSO) at a concentration of 10 mM. The test compounds were diluted to 200 nM, 50 nM, […], 3.13 nM, 0.78 nM, and 0.2 nM and used in an enzyme reaction.
(§4) CDK enzyme reaction was conducted in a buffer containing 50 mM Tris-HCl (pH 7.5), 10 mM MgCl2, 1 mM EGTA, 1 mM EDTA, and 2 mM DTT. CDK1/cyclinB, CDK2/cylcinE, CDK5/p25, and CDK6/cyclinD3 enzymes commercially available from Merck Millipore were used for CDK1, CDK2, CDK5, and CDK6 enzymes, respectively, and CDK4/cyclinD1 enzyme commercially available from Signalchem (US) was used for CDK4. For CDK1, a reaction proceeded by adding 10 nM CDK1/cyclinB and 0.125 mg/ml histone H1 (Merck Millipore) substrate to the buffer and then adding 10 uM ATP thereto. For CDK2, a reaction was proceeded by adding 10 nM CDK2/cyclinE and 0.125 mg/ml histone H1 substrate to the buffer and then adding 10 uM ATP thereto. For CDK5, a reaction was proceeded by adding 10 nM CDK5/p25 and 0.125 mg/ml histone H1 substrate to the buffer and then adding 10 uM ATP thereto. For CDK4, a reaction was proceeded by adding 20 nM CDK4/cyclinD1 and 0.125 mg/ml Rb protein (Merck Millipore) to the buffer and then adding 10 uM ATP thereto. For CDK6, a reaction was proceeded by adding 50 nM CDK6/cyclinD3 and 0.125 mg/ml histone H1 substrate to the buffer and then adding 10 uM ATP thereto. Each enzyme reaction was incubated at 30° C. for 60 min. Then, the amount of ADP produced was measured using Victor X4 instrument (Perkin Elmer) after generating luminescence using ADP-Glo kinase assay kit (Promega, US). An inhibition effect on each enzyme was represented as a percentage of the luminescence value in the presence of the test compounds relative to the luminescence value without the test compounds. IC50 (nM) is the concentration of the compound to inhibit 50% of the enzyme activity.

Data set [8] concerns the target T2, CDK6/cyclinD3 (Homo sapiens, UniProt Q00534).
T2 construct: purchased Merck Millipore
Described as above. It counts as biochemical. The conditions noted are these: 10 uM ATP, histone H1 substrate; read-out: IC50 CDK6/cyclinD. The procedure: as §3, §4

Data set [9] deals with T3, CDK1/cyclinB (Homo sapiens, UniProt P06493).
T3 construct: purchased Merck Millipore
T3 sequence (P06493 whole entry): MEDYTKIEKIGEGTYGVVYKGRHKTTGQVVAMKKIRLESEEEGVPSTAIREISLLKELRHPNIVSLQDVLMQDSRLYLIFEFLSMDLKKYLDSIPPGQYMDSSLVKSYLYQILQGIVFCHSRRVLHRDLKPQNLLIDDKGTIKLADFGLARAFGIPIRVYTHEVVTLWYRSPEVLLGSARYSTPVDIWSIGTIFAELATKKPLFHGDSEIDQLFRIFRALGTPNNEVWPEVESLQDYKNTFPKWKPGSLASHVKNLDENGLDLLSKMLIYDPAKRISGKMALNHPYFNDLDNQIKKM
T3 sequence (P14635 whole entry partner): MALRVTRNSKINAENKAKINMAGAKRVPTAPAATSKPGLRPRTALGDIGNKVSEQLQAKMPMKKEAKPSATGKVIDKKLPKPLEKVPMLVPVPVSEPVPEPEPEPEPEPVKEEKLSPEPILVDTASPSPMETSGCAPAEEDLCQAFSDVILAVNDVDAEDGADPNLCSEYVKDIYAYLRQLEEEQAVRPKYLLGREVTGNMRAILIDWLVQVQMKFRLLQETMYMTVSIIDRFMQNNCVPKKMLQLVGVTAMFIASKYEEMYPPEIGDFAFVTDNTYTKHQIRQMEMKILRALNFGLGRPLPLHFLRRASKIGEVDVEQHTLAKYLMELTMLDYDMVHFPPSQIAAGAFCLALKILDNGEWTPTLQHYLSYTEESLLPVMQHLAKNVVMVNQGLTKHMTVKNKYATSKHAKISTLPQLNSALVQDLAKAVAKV
The description is as above. In kind it is biochemical. The conditions noted are these: 10 uM ATP, histone H1 substrate. The procedure:
as §3, §4

Data set [10] deals with T4, CDK4/cyclinD1 (Homo sapiens, UniProt P11802).
T4 construct: purchased Signalchem (US)
T4 sequence (P11802 whole entry): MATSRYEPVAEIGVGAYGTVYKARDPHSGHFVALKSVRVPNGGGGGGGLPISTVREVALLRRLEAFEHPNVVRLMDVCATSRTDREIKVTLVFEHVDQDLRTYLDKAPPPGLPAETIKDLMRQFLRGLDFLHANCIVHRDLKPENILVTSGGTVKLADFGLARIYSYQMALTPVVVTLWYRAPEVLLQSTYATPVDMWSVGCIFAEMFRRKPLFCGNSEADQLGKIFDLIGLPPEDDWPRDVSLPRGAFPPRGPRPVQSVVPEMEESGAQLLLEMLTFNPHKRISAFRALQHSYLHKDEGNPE
T4 sequence (P24385 whole entry partner): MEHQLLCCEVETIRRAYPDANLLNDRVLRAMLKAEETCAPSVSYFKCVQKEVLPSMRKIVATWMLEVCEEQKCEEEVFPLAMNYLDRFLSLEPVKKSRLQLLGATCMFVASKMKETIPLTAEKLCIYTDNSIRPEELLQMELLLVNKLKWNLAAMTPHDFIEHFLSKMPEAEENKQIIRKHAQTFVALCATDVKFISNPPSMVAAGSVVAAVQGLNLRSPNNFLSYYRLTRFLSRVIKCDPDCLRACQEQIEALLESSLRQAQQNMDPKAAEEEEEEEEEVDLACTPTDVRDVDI
The description is as above. In kind it is biochemical. The conditions noted are these: 10 uM ATP, Rb protein substrate; read-out: IC50 CDK4/cyclinD. The protocol: as §3, §4

For data set [11], the target named is T5, CDK5/p25 (Homo sapiens, UniProt Q00535).
T5 construct: purchased Merck Millipore
T5 sequence (Q00535 whole entry): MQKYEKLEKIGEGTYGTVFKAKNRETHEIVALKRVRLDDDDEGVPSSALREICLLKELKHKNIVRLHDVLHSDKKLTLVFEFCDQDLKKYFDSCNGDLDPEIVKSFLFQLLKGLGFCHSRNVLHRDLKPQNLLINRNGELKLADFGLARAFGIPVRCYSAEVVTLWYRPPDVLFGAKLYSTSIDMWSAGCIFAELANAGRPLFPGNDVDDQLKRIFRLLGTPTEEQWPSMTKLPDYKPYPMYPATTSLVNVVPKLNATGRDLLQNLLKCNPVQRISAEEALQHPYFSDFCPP
T5 sequence (Q15078 99-307 partner limits assumed): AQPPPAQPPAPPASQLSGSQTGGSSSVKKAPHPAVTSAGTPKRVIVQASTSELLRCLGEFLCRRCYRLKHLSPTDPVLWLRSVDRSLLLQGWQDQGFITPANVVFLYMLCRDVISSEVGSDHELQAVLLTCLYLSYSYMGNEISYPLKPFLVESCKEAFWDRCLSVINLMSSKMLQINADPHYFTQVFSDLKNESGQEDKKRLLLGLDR
Described as above. In kind it is biochemical. The conditions noted are these: 10 uM ATP, histone H1 substrate. The procedure:
as §3, §4

Data set [12] concerns Aβ (amyloid β protein). Put plainly: Inhibition of Aβ generation in B103/APP cells (Aβ42 ELISA). It counts as cell-based. The conditions noted are these: Rattus norvegicus, 72 hrs. The protocol: The APP gene was inserted into B103 cells so that APP could be stably expressed and the resulting B103/APP cells were used to confirm inhibition of APP phosphorylation and Aβ generation.
Further, to confirm whether Aβ generation is reduced due to APP phosphorylation inhibition, 5×10^5 B103/APP cells were cultured in a 6-well plate for 16 hrs. Afterwards, the compounds obtained in the above Examples were added at 100 nM, 75 nM, 50 nM, 25 nM, 12.5 nM to a medium containing 500 ug/ml of G418 and 0.5% FBS and incubated for 72 hrs. After 72 hrs, the amount of Aβ was quantified using the medium by Human Aβ42 ELISA kit (Invitrogen).
On the technique in general: An ELISA detects its analyte on a solid surface through an enzyme-linked reagent.

The test system of data set [13] is A549. In words: Inhibition of cancer cell proliferation (MTT). It counts as cell-based, human. Conditions: Homo sapiens, A549, 72 h. An outline of the steps:
as §1

Data set [14] has as its system NCI-H23. In words: Inhibition of cancer cell proliferation (MTT). It counts as cell-based, human. Conditions: Homo sapiens, NCI-H23, 72 h. The method in brief:
as §1

In data set [15] the test system is Human colon carcinoma HCT116 cell line. In words: Tumor growth inhibition in an animal model (HCT116 xenograft). It counts as in vivo, Balb/c nude mouse. The conditions noted are these: 100 mpk, oral daily for 12 days. The procedure: Tumor size was measured twice a week using Caliper. […] A vehicle control was 20% propylene glycol (PG) and a positive control was Xeloda at 100 mg/kg.

Each structure is given as a SMILES string. pIC50: −log10 of the molar value. Where two headings read alike, the source gives them in different places. Where only a bound is given, the exact number is not on record here.

By GI50 is commonly meant the concentration that inhibits growth by half. Low values mean greater sensitivity of the cells, high ones lower sensitivity of the cells. By inhibition is commonly meant the share of the control response that was lost under treatment.

T2 sequence (Q00534 whole entry): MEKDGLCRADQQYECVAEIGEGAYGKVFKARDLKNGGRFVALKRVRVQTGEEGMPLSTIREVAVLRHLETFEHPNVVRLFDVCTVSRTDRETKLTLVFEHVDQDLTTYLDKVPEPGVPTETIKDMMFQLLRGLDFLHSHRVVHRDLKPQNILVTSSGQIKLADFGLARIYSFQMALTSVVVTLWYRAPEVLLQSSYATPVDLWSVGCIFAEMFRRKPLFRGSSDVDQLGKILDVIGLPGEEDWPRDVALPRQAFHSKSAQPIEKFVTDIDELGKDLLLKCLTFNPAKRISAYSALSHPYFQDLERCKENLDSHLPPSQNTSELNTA
T2 sequence (P30281 whole entry partner): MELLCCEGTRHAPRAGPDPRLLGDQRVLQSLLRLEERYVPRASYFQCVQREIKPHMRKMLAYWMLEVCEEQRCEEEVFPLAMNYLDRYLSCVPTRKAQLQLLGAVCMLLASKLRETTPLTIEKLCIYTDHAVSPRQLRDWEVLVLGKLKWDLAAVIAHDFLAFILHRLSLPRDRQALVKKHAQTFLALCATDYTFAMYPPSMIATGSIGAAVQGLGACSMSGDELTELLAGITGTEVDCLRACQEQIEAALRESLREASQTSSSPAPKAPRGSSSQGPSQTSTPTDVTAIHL

For `Nc1nccc(-c2nc(-c3ccncc3)ccc2O)n1` [Example 12, 6-(2-aminopyrimidin-4-yl)-[2,4′-bipyridin]-5-ol], the GI50 in [1] (Homo sapiens, HCT-116, 72 h) came to 230 nM; in [2], 240 nM; in data set [3] (Homo sapiens, U-87 MG, 72 h), 790 nM; in data set [4], 420 nM; in [5] (Homo sapiens, T98G, 72 h), 1830 nM. Further, the concentration at 1 h in data set [6] (male, ICR, brain, po, 1 hr, read-out: Concentration in the brain) was found to be 71.1 ng/g; in data set [6] (male, ICR, plasma, po, 1 hr, read-out: Concentration in the plasma) it was 17.3 ng/mL. Moreover, the concentration at 4 h in data set [6] (male, ICR, brain, po, 4 hrs, read-out: Concentration in the brain) came to 9.1 ng/g; in data set [6] (male, ICR, plasma, po, 4 hrs, read-out: Concentration in the plasma) it was 2.6 ng/mL. In addition, the Kp at 1 h in data set [6] (male, ICR, brain/plasma, po, 1 hr, read-out: B/P ratio) worked out at 4.1. In data set [6] (male, ICR, brain/plasma, po, 4 hrs, read-out: B/P ratio), the Kp at 4 h was 3.54. Further, the pIC50 in [7] was 8.18; in data set [8] it was 7.29; in data set [9] it was 7.90; in data set [10], less than 6.70; in [11], 8.23.
Take `Nc1nccc(-c2nc(-c3ccnc(N)c3F)ccc2O)n1` [Example 66]: in data set [12] (12.5 nM), the inhibition at 0.0125 µM was determined as 36.6%. For the same compound, the inhibition at 0.025 µM in [12] (25 nM) was determined as 46.6%. Besides, the inhibition at 0.05 µM in data set [12] (50 nM) was determined as 75.9%. In addition, at 0.075 µM the inhibition in data set [12] (75 nM) was 100%. In [12] (100 nM), this compound came in with an inhibition at 0.1 µM of 100%. Moreover, the GI50 is 10 nM in [1] (72 hrs); 30 nM in data set [13]; 30 nM in data set [14]; 20 nM in data set [3] (72 hrs); 30 nM in data set [5] (72 hrs). In addition, the figures for the B/P ratio in data set [6] (1 hr) and in [6] (4 hrs) were 2.44 and 2.93, respectively. The “Concentration in the brain” value in [6] (1 hr) was determined as 80.5 ng/g; in [6] (4 hrs), 58.9 ng/g. For the same compound, the “Concentration in the plasma” value worked out at 32.9 ng/mL in [6] (1 hr) and 20.1 ng/mL in data set [6] (4 hrs). The pIC50 in data set [7] was 9.00; in data set [9], 9.22; in data set [11], 9.52.
For the compound `CCCCCOC(=O)Nc1nc(=O)n([C@@H]2O[C@H](C)[C@@H](O)[C@H]2O)cc1F` [Xeloda, reference compound], the Tumor size in [15] turned out to be 994.7 ± 405.5 mm^3. In [15] (vs vehicle control), this compound displayed a tumor growth inhibition of 46%.
